One experiment concerns P. aeruginosa CDC-0110. Nature of the experiment: microbe, parasite or virus in culture. To be noted: Pseudomonas aeruginosa, CDC0110, read-out: Minimum inhibitory concentration, P. aeruginosa CDC-0110. Type of experiment: cell-based.
The subject of another experiment is A. baumannii CDC-0036. The experiment can be described thus: microbe, parasite or virus in culture. Type of experiment: cell-based. To be noted: Acinetobacter baumannii, CDC0036, read-out: MIC, A. baumannii CDC-0036.
For another experiment, the system named is A. baumannii ATCC 19606. The experiment can be described thus: microbe, parasite or virus in culture. Type of experiment: cell-based. To be noted: Acinetobacter baumannii, ATCC19606, read-out: MIC, A. baumannii ATCC 19606.
In a further experiment the target is T1, A. baumannii PBP1a (Acinetobacter baumannii, UniProt A0ABX6CK30).
T1 sequence (A0ABX6CK30 1-851): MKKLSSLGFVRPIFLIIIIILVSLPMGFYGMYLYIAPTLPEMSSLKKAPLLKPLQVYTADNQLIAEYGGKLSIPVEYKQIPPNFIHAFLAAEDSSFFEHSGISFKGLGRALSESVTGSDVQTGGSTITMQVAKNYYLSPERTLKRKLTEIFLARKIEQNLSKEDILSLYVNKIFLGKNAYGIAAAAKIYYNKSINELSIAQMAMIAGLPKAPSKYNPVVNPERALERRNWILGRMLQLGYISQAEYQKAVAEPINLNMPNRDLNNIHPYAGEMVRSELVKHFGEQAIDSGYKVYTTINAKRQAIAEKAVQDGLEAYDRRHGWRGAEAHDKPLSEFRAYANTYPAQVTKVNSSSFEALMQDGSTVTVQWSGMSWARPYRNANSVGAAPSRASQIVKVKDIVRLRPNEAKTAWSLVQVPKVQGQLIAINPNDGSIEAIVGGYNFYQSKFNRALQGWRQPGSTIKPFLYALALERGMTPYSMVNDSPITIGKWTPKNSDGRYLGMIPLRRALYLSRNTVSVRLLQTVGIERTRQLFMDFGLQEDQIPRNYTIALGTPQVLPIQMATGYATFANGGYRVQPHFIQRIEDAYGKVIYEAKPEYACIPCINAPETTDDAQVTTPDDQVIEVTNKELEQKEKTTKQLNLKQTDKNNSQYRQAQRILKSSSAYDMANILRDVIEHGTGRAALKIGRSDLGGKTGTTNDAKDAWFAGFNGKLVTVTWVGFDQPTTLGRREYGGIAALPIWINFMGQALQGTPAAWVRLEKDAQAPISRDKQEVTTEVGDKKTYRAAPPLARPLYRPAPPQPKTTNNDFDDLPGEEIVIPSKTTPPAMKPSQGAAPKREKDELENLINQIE
The experiment can be described thus: Bocillin-FL competition binding via gel filtration, A. baumannii PBP1a. To be noted: competition binding assay using Bocillin-FL via gel filtration; read-out: A. baumannii PBP1a Potency. In short, it runs like this: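 Competitive equilibrium binding; reporter Bocillin-FL. PBP + inhibitor (titration) pre-incubated → Bocillin-FL, 15 min → gel filtration → fluorescence. EC50 from Hill fit of fraction bound vs [inhibitor].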
On the technique in general: Size exclusion chromatography separates by hydrodynamic size, large species first.

≈ marks a conversion by molar mass, not a printed value.

As for `CS(=O)(=O)N1CCN(C(=O)N[C@@H](C(=O)N[C@H]2Cc3cccc(C(=O)O)c3OB2O)c2ccc(P(=O)(O)O)cc2)C1=O` (single isomer, unassigned) [Example 6], the MIC in the experiment on P. aeruginosa CDC-0110 is 32 to 64 µg/mL (≈ 52.4 to 105 µM); in the experiment with A. baumannii CDC-0036, 32 to 64 µg/mL (≈ 52.4 to 105 µM); in the experiment on A. baumannii ATCC 19606 it was 8 to 16 µg/mL (≈ 13.1 to 26.2 µM).
`O=C(O)c1c(F)ccc2c1OB(O)[C@@H](NC(=O)[C@@H](NC(=O)N1CCN(C3CCN(C(=O)Nc4ccc(O)cc4)CC3)C1=O)c1cc(F)c(O)c(O)c1Cl)C2` (single isomer, unassigned) [Example 467]: the MIC in the experiment with P. aeruginosa CDC-0110, in the experiment on A. baumannii CDC-0036 and in the experiment with A. baumannii ATCC 19606 was less than 1 µg/mL each time. Moreover, at A. baumannii PBP1a, the EC50 is less than 10 µM.
In the case of `O=C(NCCCN1CCN(C(=O)N[C@H](C(=O)N[C@H]2Cc3ccc(F)c(C(=O)O)c3OB2O)c2cc(F)c(O)c(O)c2Cl)C(=O)C1=O)c1ccc(O)cc1Cl` (single isomer, unassigned) [Example 470], the MIC with P. aeruginosa CDC-0110 was in the range of 8 to 16 µg/mL (≈ 10.1 to 20.1 µM); in the experiment with A. baumannii CDC-0036, 32 to 64 µg/mL (≈ 40.3 to 80.6 µM); in the experiment on A. baumannii ATCC 19606, 8 to 16 µg/mL (≈ 10.1 to 20.1 µM).
For the molecule `O=C(NCCCN1CCN(C(=O)N[C@H](C(=O)N[C@H]2Cc3ccc(F)c(C(=O)O)c3OB2O)c2cc(F)c(O)c(O)c2Cl)C(=O)C1=O)c1cc(F)c(O)cc1F` (single isomer, unassigned) [Example 472], the MIC in the experiment with P. aeruginosa CDC-0110 is less than 1 µg/mL; in the experiment on A. baumannii CDC-0036, 8 to 16 µg/mL (≈ 10.1 to 20.1 µM); in the experiment with A. baumannii ATCC 19606, 2 to 4 µg/mL (≈ 2.51 to 5.03 µM).
Consider `O=C(NCCCS(=O)(=O)N1CCN(C(=O)NC(C(=O)N[C@H]2Cc3ccc(F)c(C(=O)O)c3OB2O)c2cc(F)c(O)c(O)c2Cl)C1=O)Nc1cccnc1` (stereo partly drawn) [Example 278, (3R)-3-(2-(2-chloro-5-fluoro-3,4-dihydroxyphenyl)-2-(2-oxo-3-((3-(3-(pyridin-3-yl)ureido)propyl)sulfonyl)imidazolidine-1-carboxamido)acetamido)-7-fluoro-2-hydroxy-3,4-dihydro-2H-benzo[e][1,2]oxaborinine-8-carboxylic acid], for which the MIC is 2 to 4 µg/mL (≈ 2.51 to 5.03 µM) with P. aeruginosa CDC-0110, 2 to 4 µg/mL (≈ 2.51 to 5.03 µM) in the experiment with A. baumannii CDC-0036 and less than 1 µg/mL in the experiment on A. baumannii ATCC 19606. Moreover, the EC50 on A. baumannii PBP1a was 10 to 50 µM.
For the molecule `O=C(NCCCN1CCN(C(=O)NC(C(=O)N[C@H]2Cc3ccc(F)c(C(=O)O)c3OB2O)c2cc(F)c(O)c(O)c2Cl)C1=O)c1cccnc1` (stereo partly drawn) [Example 281, (3R)-3-(2-(2-chloro-5-fluoro-3,4-dihydroxyphenyl)-2-(3-(3-(nicotinamido)propyl)-2-oxoimidazolidine-1-carboxamido)acetamido)-7-fluoro-2-hydroxy-3,4-dihydro-2H-benzo[e][1,2]oxaborinine-8-carboxylic acid], the figures for the MIC in the experiment on P. aeruginosa CDC-0110, with A. baumannii CDC-0036 and in the experiment on A. baumannii ATCC 19606 were 2 to 4 µg/mL (≈ 2.79 to 5.58 µM), 2 to 4 µg/mL (≈ 2.79 to 5.58 µM) and less than 1 µg/mL, respectively.
As for `O=C(NCCCN1CCN(C(=O)N[C@H](C(=O)N[C@H]2Cc3ccc(F)c(C(=O)O)c3OB2O)c2cc(F)c(O)c(O)c2Cl)C1=O)Nc1ccc(O)cc1` [Example 283, (R)-3-((S)-2-(2-chloro-5-fluoro-3,4-dihydroxyphenyl)-2-(3-(3-(3-(4-hydroxyphenyl)ureido)propyl)-2-oxoimidazolidine-1-carboxamido)acetamido)-7-fluoro-2-hydroxy-3,4-dihydro-2H-benzo[e][1,2]oxaborinine-8-carboxylic acid], the MIC in the experiment on P. aeruginosa CDC-0110, with A. baumannii CDC-0036 and in the experiment with A. baumannii ATCC 19606 was more than 128 µg/mL in each case.
Regarding `O=C(NCCS(=O)(=O)N1CCN(C(=O)N[C@H](C(=O)N[C@H]2Cc3ccc(F)c(C(=O)O)c3OB2O)c2cc(F)c(O)c(O)c2Cl)C1=O)c1ccc(O)cc1` [Example 286, (R)-3-((S)-2-(2-chloro-5-fluoro-3,4-dihydroxyphenyl)-2-(3-((2-(4-hydroxybenzamido)ethyl)sulfonyl)-2-oxoimidazolidine-1-carboxamido)acetamido)-7-fluoro-2-hydroxy-3,4-dihydro-2H-benzo[e][1,2]oxaborinine-8-carboxylic acid], the MIC in the experiment with P. aeruginosa CDC-0110, in the experiment with A. baumannii CDC-0036 and in the experiment with A. baumannii ATCC 19606 was more than 128 µg/mL throughout.
On to `O=C(NCCS(=O)(=O)N1CCN(C(=O)NC(C(=O)N[C@H]2Cc3ccc(F)c(C(=O)O)c3OB2O)c2cc(F)c(O)c(O)c2Cl)C1=O)c1ccncc1` (stereo partly drawn) [Example 288, (3R)-3-(2-(2-chloro-5-fluoro-3,4-dihydroxyphenyl)-2-(3-((2-(isonicotinamido)ethyl)sulfonyl)-2-oxoimidazolidine-1-carboxamido)acetamido)-7-fluoro-2-hydroxy-3,4-dihydro-2H-benzo[e][1,2]oxaborinine-8-carboxylic acid], for which the MIC in the experiment on P. aeruginosa CDC-0110 is 2 to 4 µg/mL (≈ 2.61 to 5.22 µM); in the experiment on A. baumannii CDC-0036, 2 to 4 µg/mL (≈ 2.61 to 5.22 µM); in the experiment on A. baumannii ATCC 19606, less than 1 µg/mL.
For the molecule `O=C(NCCCS(=O)(=O)N1CCN(C(=O)NC(C(=O)N[C@H]2Cc3ccc(F)c(C(=O)O)c3OB2O)c2cc(F)c(O)c(O)c2Cl)C1=O)Nc1ccncc1` (stereo partly drawn) [Example 291, (3R)-3-(2-(2-chloro-5-fluoro-3,4-dihydroxyphenyl)-2-(2-oxo-3-((3-(3-(pyridin-4-yl)ureido)propyl)sulfonyl)imidazolidine-1-carboxamido)acetamido)-7-fluoro-2-hydroxy-3,4-dihydro-2H-benzo[e][1,2]oxaborinine-8-carboxylic acid], the MIC in the experiment with P. aeruginosa CDC-0110 is 2 to 4 µg/mL (≈ 2.51 to 5.03 µM); with A. baumannii CDC-0036, 2 to 4 µg/mL (≈ 2.51 to 5.03 µM); in the experiment on A. baumannii ATCC 19606 it was less than 1 µg/mL.
As for `O=C(O)c1c(F)ccc2c1OB(O)[C@@H](NC(=O)C(NC(=O)N1CCN(Cc3ccc(O)c(O)c3Cl)C(=O)C1=O)c1cc(F)c(O)c(O)c1Cl)C2` (stereo partly drawn) [Example 292, (3R)-3-(2-(4-(2-chloro-3,4-dihydroxybenzyl)-2,3-dioxopiperazine-1-carboxamido)-2-(2-chloro-5-fluoro-3,4-dihydroxyphenyl)acetamido)-7-fluoro-2-hydroxy-3,4-dihydro-2H-benzo[e][1,2]oxaborinine-8-carboxylic acid], the MIC with P. aeruginosa CDC-0110, in the experiment with A. baumannii CDC-0036 and in the experiment with A. baumannii ATCC 19606 was more than 128 µg/mL each time.
Regarding `O=C(NCCCN1CCN(C(=O)N[C@@H](C(=O)N[C@H]2Cc3ccc(F)c(C(=O)O)c3OB2O)c2cc(F)c(O)c(O)c2Cl)C(=O)C1=O)c1ccncc1` [Example 294, (R)-3-((R)-2-(2-chloro-5-fluoro-3,4-dihydroxyphenyl)-2-(4-(3-(isonicotinamido)propyl)-2,3-dioxopiperazine-1-carboxamido)acetamido)-7-fluoro-2-hydroxy-3,4-dihydro-2H-benzo[e][1,2]oxaborinine-8-carboxylic acid], the MIC in the experiment with P. aeruginosa CDC-0110, in the experiment on A. baumannii CDC-0036 and in the experiment on A. baumannii ATCC 19606 was less than 1 µg/mL throughout.
As to `O=C(NCCCN1CCN(C(=O)N[C@H](C(=O)N[C@H]2Cc3ccc(F)c(C(=O)O)c3OB2O)c2cc(F)c(O)c(O)c2Cl)C(=O)C1=O)c1ccnc(F)c1F` [Example 299, (R)-3-((S)-2-(2-chloro-5-fluoro-3,4-dihydroxyphenyl)-2-(4-(3-(2,3-difluoroisonicotinamido)propyl)-2,3-dioxopiperazine-1-carboxamido)acetamido)-7-fluoro-2-hydroxy-3,4-dihydro-2H-benzo[e][1,2]oxaborinine-8-carboxylic acid], the MIC fell in the range of 8 to 16 µg/mL (≈ 10.2 to 20.5 µM) in the experiment with P. aeruginosa CDC-0110, 32 to 64 µg/mL (≈ 41 to 82 µM) with A. baumannii CDC-0036 and 2 to 4 µg/mL (≈ 2.56 to 5.12 µM) in the experiment with A. baumannii ATCC 19606.
With `O=C(NCCCN1CCN(C(=O)N[C@@H](C(=O)N[C@H]2Cc3ccc(F)c(C(=O)O)c3OB2O)c2cc(F)c(O)c(O)c2Cl)C(=O)C1=O)c1ccnc(F)c1F` [Example 300, (R)-3-((R)-2-(2-chloro-5-fluoro-3,4-dihydroxyphenyl)-2-(4-(3-(2,3-difluoroisonicotinamido)propyl)-2,3-dioxopiperazine-1-carboxamido)acetamido)-7-fluoro-2-hydroxy-3,4-dihydro-2H-benzo[e][1,2]oxaborinine-8-carboxylic acid], the MIC in the experiment with P. aeruginosa CDC-0110 is less than 1 µg/mL; in the experiment with A. baumannii CDC-0036, 2 to 4 µg/mL (≈ 2.56 to 5.12 µM); in the experiment with A. baumannii ATCC 19606, less than 1 µg/mL. Moreover, on A. baumannii PBP1a, the EC50 lay in the range of 10 to 50 µM.
For the molecule `O=C(NCCCN1CCN(C(=O)N[C@H](C(=O)N[C@H]2Cc3ccc(F)c(C(=O)O)c3OB2O)c2cc(F)c(O)c(O)c2Cl)C(=O)C1=O)c1cccc(O)c1Cl` [Example 302, (R)-3-((S)-2-(4-(3-(2-chloro-3-hydroxybenzamido)propyl)-2,3-dioxopiperazine-1-carboxamido)-2-(2-chloro-5-fluoro-3,4-dihydroxyphenyl)acetamido)-7-fluoro-2-hydroxy-3,4-dihydro-2H-benzo[e][1,2]oxaborinine-8-carboxylic acid], the MIC is more than 128 µg/mL in the experiment with P. aeruginosa CDC-0110, more than 128 µg/mL with A. baumannii CDC-0036 and 32 to 64 µg/mL (≈ 40.3 to 80.6 µM) with A. baumannii ATCC 19606.

These data come from patent publication US20240270762A1, “PENICILLIN-BINDING PROTEIN INHIBITORS” (priority 2021, published 2024).
